Test results reported in PubChem BioAssay AID2060615 (Molecular Pharmacology Branch, DTP, NCI, 2025).
pIC50: −log10 of the molar value.

Test system: 496974-208-R-J2-PDC complex spheroids, growth % test/control
Assay: Anticancer human tumor 496974-208-R-J2-PDC patient-derived pancreatic carcinoma cell line growth inhibition [CLK]
Settings: for pIC50: curve of first compound; for viability, T/C: stronger effect = lower value
Outline: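 Patient-derived tumor cells grown as complex spheroids with HUVEC endothelial cells and mesenchymal stem cells, treated with drug combinations. Concentrations descend in half-log steps from near clinical Cmax, or from 10 microM if Cmax unknown.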

[1] = second compound 0.0316 µM, first compound 0.0316 µM
[2] = second compound 0.0316 µM, first compound 0.1 µM
[3] = second compound 0.0316 µM, first compound 0.316 µM
[4] = second compound 0.0316 µM, first compound 1 µM
[5] = second compound 0.1 µM, first compound 0.0316 µM
[6] = second compound 0.1 µM, first compound 0.1 µM
[7] = second compound 0.1 µM, first compound 0.316 µM
[8] = second compound 0.1 µM, first compound 1 µM
[9] = second compound 0.316 µM, first compound 0.0316 µM
[10] = second compound 0.316 µM, first compound 0.1 µM
[11] = second compound 0.316 µM, first compound 0.316 µM
[12] = second compound 0.316 µM, first compound 1 µM
[13] = second compound 1 µM, first compound 0.0316 µM
[14] = second compound 1 µM, first compound 0.1 µM
[15] = second compound 1 µM, first compound 0.316 µM
[16] = second compound 1 µM, first compound 1 µM
[17] = second compound 3.16 µM, first compound 0.0316 µM
[18] = second compound 3.16 µM, first compound 0.1 µM
[19] = second compound 3.16 µM, first compound 0.316 µM
[20] = second compound 3.16 µM, first compound 1 µM
[21] = second compound 10 µM, first compound 0.0316 µM
[22] = second compound 10 µM, first compound 0.1 µM
[23] = second compound 10 µM, first compound 0.316 µM
[24] = second compound 10 µM, first compound 1 µM
[25] = second compound 0.0316 µM, first compound 0.00316 µM
[26] = second compound 0.0316 µM, first compound 0.01 µM
[27] = second compound 0.1 µM, first compound 0.00316 µM
[28] = second compound 0.1 µM, first compound 0.01 µM
[29] = second compound 0.316 µM, first compound 0.00316 µM
[30] = second compound 0.316 µM, first compound 0.01 µM
[31] = second compound 1 µM, first compound 0.00316 µM
[32] = second compound 1 µM, first compound 0.01 µM
[33] = second compound 3.16 µM, first compound 0.00316 µM
[34] = second compound 3.16 µM, first compound 0.01 µM
[35] = second compound 10 µM, first compound 0.00316 µM
[36] = second compound 10 µM, first compound 0.01 µM
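Note: spheroids exposed to the drugs for 7 days before readout.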
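Throughout, for viability, T/C: 100% = DMSO vehicle control wells.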

C=CC(=O)Nc1cc(Nc2nccc(-c3cn(C)c4ccccc34)n2)c(OC)cc1N(C)CCN(C)C + CN1CCN(c2cc(C(=O)Nc3cc4cc(-c5cnn(C)c5)ccc4cn3)ccn2)CC1
pIC50 (second compound 0.0316 µM): < 6.52 | pIC50 (second compound 0.1 µM): < 6.52 | pIC50 (second compound 0.316 µM): > 9.02 | pIC50 (second compound 1 µM): > 9.02 | pIC50 (second compound 3.16 µM): > 9.02 | pIC50 (second compound 10 µM): > 9.02 | viability, T/C (second compound 0.0316 µM, first compound 0.000949 µM): 104% | viability, T/C (second compound 0.0316 µM, first compound 0.003 µM): 100% | viability, T/C (second compound 0.0316 µM, first compound 0.00949 µM): 94.9% | viability, T/C (second compound 0.0316 µM, first compound 0.03 µM): 86.5% | viability, T/C (second compound 0.0316 µM, first compound 0.0949 µM): 85.7% | viability, T/C (second compound 0.0316 µM, first compound 0.3 µM): 60.6% | viability, T/C (second compound 0.1 µM, first compound 0.000949 µM): 77.1% | viability, T/C (second compound 0.1 µM, first compound 0.003 µM): 86.2% | viability, T/C (second compound 0.1 µM, first compound 0.00949 µM): 80.8% | viability, T/C (second compound 0.1 µM, first compound 0.03 µM): 74.3% | viability, T/C (second compound 0.1 µM, first compound 0.0949 µM): 70.8% | viability, T/C (second compound 0.1 µM, first compound 0.3 µM): 50% | viability, T/C (second compound 0.316 µM, first compound 0.000949 µM): 6.91% | viability, T/C (second compound 0.316 µM, first compound 0.003 µM): 7.98% | viability, T/C (second compound 0.316 µM, first compound 0.00949 µM): 5.85% | viability, T/C (second compound 0.316 µM, first compound 0.03 µM): 4.61% | viability, T/C (second compound 0.316 µM, first compound 0.0949 µM): 6.12% | viability, T/C (second compound 0.316 µM, first compound 0.3 µM): 4.42% | viability, T/C (second compound 1 µM, first compound 0.000949 µM): 0.32% | viability, T/C (second compound 1 µM, first compound 0.003 µM): 0.55% | viability, T/C (second compound 1 µM, first compound 0.00949 µM): 1.29% | viability, T/C (second compound 1 µM, first compound 0.03 µM): 0.51% | viability, T/C (second compound 1 µM, first compound 0.0949 µM): 2.8% | viability, T/C (second compound 1 µM, first compound 0.3 µM): 0.65% | viability, T/C (second compound 3.16 µM, first compound 0.000949 µM): 0.42% | viability, T/C (second compound 3.16 µM, first compound 0.003 µM): 1.96% | viability, T/C (second compound 3.16 µM, first compound 0.00949 µM): 1.14% | viability, T/C (second compound 3.16 µM, first compound 0.03 µM): 0.42% | viability, T/C (second compound 3.16 µM, first compound 0.0949 µM): 2.24% | viability, T/C (second compound 3.16 µM, first compound 0.3 µM): 1.33% | viability, T/C (second compound 10 µM, first compound 0.000949 µM): 0.31% | viability, T/C (second compound 10 µM, first compound 0.003 µM): 0.31% | viability, T/C (second compound 10 µM, first compound 0.00949 µM): 0.31% | viability, T/C (second compound 10 µM, first compound 0.03 µM): 0.85% | viability, T/C (second compound 10 µM, first compound 0.0949 µM): 2.25% | viability, T/C (second compound 10 µM, first compound 0.3 µM): 2.99%

CC(Nc1ccc2c(c1)OCCn1cc(N3C(=O)OCC3C(F)F)nc1-2)C(N)=O (stereo not drawn) + CN1CCN(c2cc(C(=O)Nc3cc4cc(-c5cnn(C)c5)ccc4cn3)ccn2)CC1
pIC50 (second compound 0.0316 µM): 6.78 | pIC50 (second compound 0.1 µM): 7.00 | pIC50 (second compound 0.316 µM): > 7.50 | pIC50 (second compound 1 µM): > 7.50 | pIC50 (second compound 3.16 µM): > 7.50 | pIC50 (second compound 10 µM): > 7.50 | viability, T/C [1]: 86.4% | viability, T/C [2]: 60.1% | viability, T/C [3]: 37.2% | viability, T/C [4]: 22% | viability, T/C (second compound 0.0316 µM, first compound 3.16 µM): 13.6% | viability, T/C (second compound 0.0316 µM, first compound 10 µM): 8.34% | viability, T/C [5]: 64% | viability, T/C [6]: 51.2% | viability, T/C [7]: 32.3% | viability, T/C [8]: 20.9% | viability, T/C (second compound 0.1 µM, first compound 3.16 µM): 14.5% | viability, T/C (second compound 0.1 µM, first compound 10 µM): 8.7% | viability, T/C [9]: 7.37% | viability, T/C [10]: 5.41% | viability, T/C [11]: 2.52% | viability, T/C [12]: 2.18% | viability, T/C (second compound 0.316 µM, first compound 3.16 µM): 2.7% | viability, T/C (second compound 0.316 µM, first compound 10 µM): 2.59% | viability, T/C [13]: 0.4% | viability, T/C [14]: 0.53% | viability, T/C [15]: 2.57% | viability, T/C [16]: 0.36% | viability, T/C (second compound 1 µM, first compound 3.16 µM): 1.09% | viability, T/C (second compound 1 µM, first compound 10 µM): 1.26% | viability, T/C [17]: 0.43% | viability, T/C [18]: 0.34% | viability, T/C [19]: 1.75% | viability, T/C [20]: 0.38% | viability, T/C (second compound 3.16 µM, first compound 3.16 µM): 0.52% | viability, T/C (second compound 3.16 µM, first compound 10 µM): 0.5% | viability, T/C [21]: 0.2% | viability, T/C [22]: 0.58% | viability, T/C [23]: 1.4% | viability, T/C [24]: 0.27% | viability, T/C (second compound 10 µM, first compound 3.16 µM): 0.59% | viability, T/C (second compound 10 µM, first compound 10 µM): 0.57%

CCN1CCN(Cc2ccc(Nc3ncc(F)c(-c4cc(F)c5nc(C)n(C(C)C)c5c4)n3)nc2)CC1 + CN1CCN(c2cc(C(=O)Nc3cc4cc(-c5cnn(C)c5)ccc4cn3)ccn2)CC1
pIC50 (second compound 0.0316 µM): < 6.00 | pIC50 (second compound 0.1 µM): < 6.00 | pIC50 (second compound 0.316 µM): > 8.50 | pIC50 (second compound 1 µM): > 8.50 | pIC50 (second compound 3.16 µM): > 8.50 | pIC50 (second compound 10 µM): > 8.50 | viability, T/C [25]: 90.4% | viability, T/C [26]: 87.9% | viability, T/C [1]: 78.6% | viability, T/C [2]: 81% | viability, T/C [3]: 76.2% | viability, T/C [4]: 87.7% | viability, T/C [27]: 79.5% | viability, T/C [28]: 73% | viability, T/C [5]: 72.8% | viability, T/C [6]: 72.9% | viability, T/C [7]: 68.2% | viability, T/C [8]: 70.6% | viability, T/C [29]: 6.01% | viability, T/C [30]: 10.2% | viability, T/C [9]: 8.8% | viability, T/C [10]: 11.3% | viability, T/C [11]: 13.7% | viability, T/C [12]: 9.83% | viability, T/C [31]: 0.34% | viability, T/C [32]: 0.41% | viability, T/C [13]: 0.41% | viability, T/C [14]: 0.39% | viability, T/C [15]: 0.77% | viability, T/C [16]: 2.79% | viability, T/C [33]: 0.34% | viability, T/C [34]: 1.89% | viability, T/C [17]: 1.33% | viability, T/C [18]: 0.51% | viability, T/C [19]: 1.22% | viability, T/C [20]: 4.6% | viability, T/C [35]: 0.22% | viability, T/C [36]: 0.34% | viability, T/C [21]: 0.36% | viability, T/C [22]: 0.29% | viability, T/C [23]: 1.36% | viability, T/C [24]: 2.46%

COc1c(OCCCN2CCOCC2)ccc2c3n(c(=NC(=O)c4cnc(N)nc4)nc12)CCN3 + CN1CCN(c2cc(C(=O)Nc3cc4cc(-c5cnn(C)c5)ccc4cn3)ccn2)CC1
pIC50 (second compound 0.0316 µM): 7.80 | pIC50 (second compound 0.1 µM): 7.88 | pIC50 (second compound 0.316 µM): > 8.50 | pIC50 (second compound 1 µM): > 8.50 | pIC50 (second compound 3.16 µM): > 8.50 | pIC50 (second compound 10 µM): > 8.50 | viability, T/C [25]: 84.8% | viability, T/C [26]: 61.2% | viability, T/C [1]: 33.2% | viability, T/C [2]: 14.5% | viability, T/C [3]: 7% | viability, T/C [4]: 4.1% | viability, T/C [27]: 65.5% | viability, T/C [28]: 58.2% | viability, T/C [5]: 27.1% | viability, T/C [6]: 11.5% | viability, T/C [7]: 8.48% | viability, T/C [8]: 3.16% | viability, T/C [29]: 5.23% | viability, T/C [30]: 3.99% | viability, T/C [9]: 2.13% | viability, T/C [10]: 1.22% | viability, T/C [11]: 0.53% | viability, T/C [12]: 0.56% | viability, T/C [31]: 0.41% | viability, T/C [32]: 0.62% | viability, T/C [13]: 1.84% | viability, T/C [14]: 0.29% | viability, T/C [15]: 0.49% | viability, T/C [16]: 1.95% | viability, T/C [33]: 0.35% | viability, T/C [34]: 1.42% | viability, T/C [17]: 0.35% | viability, T/C [18]: 0.45% | viability, T/C [19]: 1.33% | viability, T/C [20]: 0.46% | viability, T/C [35]: 0.26% | viability, T/C [36]: 0.83% | viability, T/C [21]: 0.25% | viability, T/C [22]: 0.19% | viability, T/C [23]: 0.4% | viability, T/C [24]: 1.34%
